Drawing on the RepoRT retention time repository (doi:10.1021/acs.analchem.2c02893), this text covers LC retention time for 58 compounds.

A short description of the series: RP, Thermo Scientific Acclaim RSLC 120 C18, 100 × 2.1 mm, 2.2 µm, 30 °C, 0.2 mL/min, estimated dead time 1.1 min; A: 90% water + 10% methanol + 0.01% formic acid + 5 mM ammonium formate, pH 3.61; B: methanol + 0.01% formic acid + 5 mM ammonium formate, pH 3.61; gradient (min/%B) 0/1 1/1 2/39 13/99.9 15/99.9 15.1/1 20.1/1. As to conditions: stereoisomer not certain.

Regarding `CN(C)C1C(=O)C(C(N)=O)=C(O)C2(O)C(=O)C3=C(O)c4c(O)cccc4C(C)(O)C3CC12` (stereo not drawn) [Tetracycline], the LC retention time was 4.7 min.

On to `O=S(=O)(c1ccc(Cl)cc1)c1cc(Cl)c(Cl)cc1Cl` [Tetradifon], for which the LC retention time is 12.2 min.

`CCCCCCCCCCCCOCCOCCOCCOCCO` [Tetraethylene glycol monododecyl ether]: the LC retention time was 13.5 min.

Consider `O=C1NC(=O)C2CC=CCC12` (stereo not drawn) [Tetrahydrophthalimide (cis-) (1.2.3.6-)], for which the LC retention time was 4.37 min.

Turning to `CC(C)=CC1C(C(=O)OCN2C(=O)C3=C(CCCC3)C2=O)C1(C)C` (stereo not drawn) [Tetramethrin], the LC retention time is 12.2 min.

On to `O=C1CN=C(C2=CCCCC2)c2cc(Cl)ccc2N1` [Tetrazepam-Nor], for which the LC retention time is 10.1 min.

As for `CN1C(=O)CN=C(C2=CCCCC2)c2cc(Cl)ccc21` [Tetrazepam], the LC retention time was 10.5 min.

In the case of `COCCOc1c(OC)cc(Cc2cnc(N)nc2N)cc1OC` [Tetroxoprim], the LC retention time is 4.24 min.

For the compound `c1ccc2c(c1)CCCC2C1=NCCN1` (stereo not drawn) [Tetryzoline], the LC retention time is 4.47 min.

`COc1ccc2c3c1OC1C(OC(C)=O)=CCC4C(C2)N(C)CCC314` (stereo not drawn) [Thebacon]: the LC retention time is 4.47 min.

Regarding `COc1ccsc1CN(C(=O)CCl)c1c(C)cccc1C` [Thenylchlor], the LC retention time is 10.1 min.

Regarding `c1ccc2[nH]c(-c3cscn3)nc2c1` [Thiabendazole], the LC retention time is 6.15 min.

Turning to `NC(=O)N=C1SCCN1Cc1ccc(Cl)nc1` [Thiacloprid-amide], the LC retention time was 4.83 min.

On to `N#CN=C1SCCN1Cc1ccc(Cl)nc1` [Thiacloprid], for which the LC retention time was 5.62 min.

In the case of `CN1COCN(Cc2cnc(Cl)s2)C1=N[N+](=O)[O-]` [Thiamethoxam], the LC retention time was 4.25 min.

For the compound `COC(=O)c1c(C(F)F)nc(C(F)(F)F)c(C2=NCCS2)c1CC(C)C` [Thiazopyr], the LC retention time was 10.7 min.

Consider `O=C(Nc1ccccc1)Nc1cnns1` [Thidiazuron], for which the LC retention time was 7.17 min.

In the case of `CCSc1ccc2c(c1)N(CCCN1CCN(C)CC1)c1ccccc1S2` [Thiethylperazine], the LC retention time is 10.4 min.

With `COC(=O)c1sccc1S(=O)(=O)NC(=O)Nc1nc(C)nc(OC)n1` [Thifensulfuron-methyl], the LC retention time was 6.24 min.

As to `CCN(CC)C(=O)SCc1ccc(Cl)cc1` [Thiobencarb], the LC retention time was 11.4 min.

On to `CN(C)C1CSSSC1` [Thiocyclam], for which the LC retention time is 3.16 min.

Regarding `CSC(C)=NOC(=O)N(C)SN(C)C(=O)ON=C(C)SC` [Thiodicarb], the LC retention time is 7.64 min.

For `CNC(=O)ON=C(CSC)C(C)(C)C` [Thiofanox], the LC retention time was 7.8 min.

In the case of `Nc1nc(=S)c2[nH]cnc2[nH]1` [Thioguanine], the LC retention time was 2.53 min.

For the compound `CCSCCSP(=S)(OC)OC` [Thiometon], the LC retention time is 10.2 min.

Turning to `CCOP(=S)(OCC)Oc1cnccn1` [Thionazin (Zinophos)], the LC retention time was 8.35 min.

As for `CCOC(=O)NC(=S)Nc1ccccc1NC(=S)NC(=O)OCC` [Thiophanate-ethyl], the LC retention time is 8.61 min.

On to `COC(=O)NC(=S)Nc1ccccc1NC(=S)NC(=O)OC` [Thiophanate-methyl], for which the LC retention time was 6.93 min.

As for `CC(=O)OCCN1CCN(CCCN2c3ccccc3Sc3ccc(Cl)cc32)CC1` [Thiopropazate], the LC retention time was 9.61 min.

For `CN1CCN(CCCN2c3ccccc3Sc3ccc(S(=O)(=O)N(C)C)cc32)CC1` [Thioproperazine], the LC retention time was 8.15 min.

On to `CSc1ccc2c(c1)N(CCC1CCCCN1C)c1ccccc1S2=O` (stereo not drawn) [Thioridazine-5-sulfoxide], for which the LC retention time is 6.64 min.

With `CSc1ccc2c(c1)N(CCC1CCCCN1C)c1ccccc1S2` (stereo not drawn) [Thioridazine], the LC retention time was 9.34 min.

On to `CN1CCN(CCC=C2c3ccccc3Sc3ccc(S(=O)(=O)N(C)C)cc32)CC1` [Thiothixene], for which the LC retention time is 8.38 min.

Turning to `CN(C)C(=S)SSC(=S)N(C)C` [Thiram (Tetramethylthiuramdisulfide.TMTD)], the LC retention time was 6.8 min.

On to `Cc1ccsc1C(=CCCN1CCCC(C(=O)O)C1)c1sccc1C` (stereo not drawn) [Tiagabine], for which the LC retention time was 8.43 min.

In the case of `C=CC1(C)CC(OC(=O)CSCCN(CC)CC)C2(C)C(C)CCC3(CCC(=O)C32)C(C)C1O` (stereo not drawn) [Tiamulin], the LC retention time is 7.71 min.

For the compound `CCN(CC)CCNC(=O)c1cc(S(C)(=O)=O)ccc1OC` [Tiapride], the LC retention time is 3.41 min.

As for `CCCSc1nc(NC2CC2c2ccc(F)c(F)c2)c2nnn(C3CC(OCCO)C(O)C3O)c2n1` (stereo not drawn) [Ticagrelor], the LC retention time is 11.3 min.

Regarding `Clc1ccccc1CN1CCc2sccc2C1` [Ticlopidine], the LC retention time was 9.25 min.

In the case of `C[N+]1(CCC(O)(c2ccccc2)c2cccs2)CCOCC1` (stereo not drawn) [Tiemonium], the LC retention time was 5.06 min.

Take `CCOC(=O)C1(c2ccccc2)CCC=CC1NC` (stereo not drawn) [Tilidine-Nor]: the LC retention time is 5.28 min.

For the compound `CCOC(=O)C1(c2ccccc2)CCC=CC1N(C)C` (stereo not drawn) [Tilidine], the LC retention time is 5.1 min.

For `CCC1OC(=O)CC(O)C(C)C(OC2OC(C)C(O)C(N(C)C)C2O)C(CCN2CC(C)CC(C)C2)CC(C)C(=O)C=CC(C)=CC1COC1OC(C)C(O)C(OC)C1OC` (stereo not drawn) [Tilmicosin], the LC retention time was 6.69 min.

Consider `CC(C)(C)NCC(O)COc1nsnc1N1CCOCC1` (stereo not drawn) [Timolol], for which the LC retention time is 4.88 min.

Consider `CCS(=O)(=O)CCn1c([N+](=O)[O-])cnc1C` [Tinidazole], for which the LC retention time is 3.86 min.

Regarding `CCC(C)N(C(=O)SCc1ccccc1)C(C)CC` (stereo not drawn) [Tiocarbazil], the LC retention time is 12.8 min.

With `CC(C)CCOc1ccc(NC(=S)Nc2ccc(OCCC(C)C)cc2)cc1` [Tiocarlide], the LC retention time was 13 min.

Turning to `Clc1ccc2nsnc2c1NC1=NCCN1` [Tizanidine], the LC retention time was 3.64 min.

For `CCCSP(=S)(OCC)Oc1ccc(Cl)cc1Cl` (stereo not drawn) [Tokuthion (Prothiophos)], the LC retention time is 13.6 min.

As to `Cc1ccc(S(=O)(=O)NC(=O)NN2CCCCCC2)cc1` [Tolazamide], the LC retention time is 8.09 min.

On to `c1ccc(CC2=NCCN2)cc1` [Tolazoline], for which the LC retention time was 3.28 min.

For `CCCCNC(=O)NS(=O)(=O)c1ccc(C)cc1` [Tolbutamide], the LC retention time is 7.68 min.

`COP(=S)(OC)Oc1c(Cl)cc(C)cc1Cl` [Tolclofos-methyl]: the LC retention time is 11.4 min.

In the case of `Cc1c(Cl)cccc1Nc1ccccc1C(=O)O` [Tolfenamic acid], the LC retention time was 11.9 min.

For `CCc1nn(C)c(C(=O)NCc2ccc(Oc3ccc(C)cc3)cc2)c1Cl` [Tolfenpyrad], the LC retention time was 12.4 min.

In the case of `Cc1cccc(OCC(O)CNC(C)C)c1` (stereo not drawn) [Toliprolol], the LC retention time was 5.29 min.

With `Cc1ccc(C(=O)c2ccc(CC(=O)O)n2C)cc1` [Tolmetin], the LC retention time is 7.89 min.

`Cc1cccc(N(C)C(=S)Oc2ccc3ccccc3c2)c1` [Tolnaftate]: the LC retention time is 12.2 min.
